Reference: PubChem BioAssay (NCI)
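The compound was tested at five concentrations on cells cultured in 96-well plates, with a 48-hour exposure period. Definition used: TGI = concentration required for complete inhibition of growth.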

Tests used:
Experiment in all cases: inhibition of tumour cell growth, NCI panel, 48 h
[1] = system: HOP-92 NSCLC
[2] = system: COLO 205 colon
[3] = system: NCI-H460 lung
[4] = system: HT29 colon
[5] = system: SNB-75 CNS
[6] = system: MDA-MB-435
[7] = system: OVCAR-3 ovarian
[8] = system: SK-OV-3 ovarian
[9] = system: SK-MEL-28 melanoma
[10] = system: 786-0 renal
[11] = system: K-562 leukemia
[12] = system: KM12 colon
[13] = system: HOP-62 NSCLC
[14] = system: SW-620 colon
[15] = system: ACHN renal
[16] = system: SK-MEL-5 melanoma
[17] = system: M14 melanoma
[18] = system: A498 renal
[19] = system: TK-10 renal
[20] = system: DU-145 prostate
[21] = system: SR leukemia
[22] = system: IGROV1 ovarian
[23] = system: NCI/ADR-RES ovarian
[24] = system: RXF 393 renal
[25] = system: CCRF-CEM leukemia
[26] = system: MDA-MB-231 breast
[27] = system: BT-549 breast
[28] = system: MOLT-4 leukemia
[29] = system: HCC-2998 colon
[30] = system: PC-3 prostate
[31] = system: SNB-19 CNS
[32] = system: SF-268 CNS
[33] = system: SF-539 CNS
[34] = system: SN12C renal
[35] = system: HCT-116 colon
[36] = system: OVCAR-5 ovarian
[37] = system: HCT-15 colon
[38] = system: MALME-3M melanoma
[39] = system: OVCAR-4 ovarian
[40] = system: CAKI-1 renal
[41] = system: OVCAR-8 ovarian
[42] = system: NCI-H522 lung
[43] = system: A549 NSCLC
[44] = system: U251 CNS
[45] = system: LOX IMVI melanoma
[46] = system: SF-295 CNS
[47] = system: T-47D breast
[48] = system: EKVX NSCLC
[49] = system: SK-MEL-2 melanoma
[50] = system: MDA-N
[51] = system: NCI-H23 lung
[52] = system: MCF7 breast
[53] = system: HL-60(TB) leukemia
[54] = system: UO-31 renal
[55] = system: RPMI-8226 leukemia
[56] = system: UACC-257 melanoma
[57] = system: HS 578T breast
[58] = system: UACC-62 melanoma
[59] = system: NCI-H226 lung

COC12COC(=O)C1C(c1ccc3c(c1)OCO3)c1cc3c(cc1O2)OCO3 (stereo not drawn)
TGI [1]: > 100 µM
TGI [2]: > 93.8 µM
TGI [3]: > 100 µM
TGI [4]: > 91 µM
TGI [5]: 59.2 µM
TGI [6]: 9.13 µM
TGI [7]: > 100 µM
TGI [8]: > 75.8 µM
TGI [9]: > 100 µM
TGI [10]: > 96.8 µM
TGI [11]: 40.2 µM
TGI [12]: > 100 µM
TGI [13]: 97.6 µM
TGI [14]: > 100 µM
TGI [15]: > 100 µM
TGI [16]: > 100 µM
TGI [17]: > 100 µM
TGI [18]: > 91.8 µM
TGI [19]: > 100 µM
TGI [20]: > 93.5 µM
TGI [21]: > 100 µM
TGI [22]: > 100 µM
TGI [23]: > 74.1 µM
TGI [24]: 44.8 µM
TGI [25]: > 84.2 µM
TGI [26]: > 100 µM
TGI [27]: > 100 µM
TGI [28]: > 87.9 µM
TGI [29]: 53.1 µM
TGI [30]: > 100 µM
TGI [31]: > 100 µM
TGI [32]: > 100 µM
TGI [33]: 43.8 µM
TGI [34]: > 100 µM
TGI [35]: > 100 µM
TGI [36]: > 100 µM
TGI [37]: > 100 µM
TGI [38]: > 100 µM
TGI [39]: > 100 µM
TGI [40]: > 100 µM
TGI [41]: > 100 µM
TGI [42]: 39.7 µM
TGI [43]: > 100 µM
TGI [44]: > 100 µM
TGI [45]: > 100 µM
TGI [46]: > 100 µM
TGI [47]: > 100 µM
TGI [48]: > 97.4 µM
TGI [49]: > 83.8 µM
TGI [50]: 11.7 µM
TGI [51]: > 100 µM
TGI [52]: > 100 µM
TGI [53]: > 52.3 µM
TGI [54]: > 91.5 µM
TGI [55]: > 87.9 µM
TGI [56]: > 96.4 µM
TGI [57]: > 77.3 µM
TGI [58]: > 100 µM
TGI [59]: > 100 µM

CCc1nc(N)nc(N)c1-c1ccc2c(c1)nnn2CCc1ccccc1
TGI [1]: > 79.6 µM
TGI [2]: 42 µM
TGI [3]: 51.2 µM
TGI [4]: 56.1 µM
TGI [5]: 64.1 µM
TGI [6]: > 68.7 µM
TGI [7]: > 70.1 µM
TGI [8]: > 75.2 µM
TGI [9]: > 71.5 µM
TGI [10]: 64.4 µM
TGI [11]: > 51.1 µM
TGI [12]: > 64.1 µM
TGI [13]: > 69.9 µM
TGI [14]: > 66.5 µM
TGI [15]: > 70.1 µM
TGI [16]: 32.2 µM
TGI [17]: > 65.9 µM
TGI [18]: > 79 µM
TGI [19]: > 83.7 µM
TGI [20]: > 65.2 µM
TGI [21]: 49.5 µM
TGI [22]: > 70.3 µM
TGI [23]: 68.8 µM
TGI [24]: > 73.8 µM
TGI [25]: > 69.9 µM
TGI [26]: > 72.4 µM
TGI [27]: > 69 µM
TGI [28]: 50.2 µM
TGI [29]: 51.4 µM
TGI [30]: > 64.7 µM
TGI [31]: 86.4 µM
TGI [32]: > 64.2 µM
TGI [33]: > 68.9 µM
TGI [34]: > 73.5 µM
TGI [35]: > 61.1 µM
TGI [36]: > 82.5 µM
TGI [37]: > 63.2 µM
TGI [38]: 49.5 µM
TGI [39]: > 100 µM
TGI [40]: > 100 µM
TGI [41]: > 64.9 µM
TGI [42]: 33.9 µM
TGI [43]: > 100 µM
TGI [44]: > 70.5 µM
TGI [45]: > 65 µM
TGI [46]: 57.1 µM
TGI [47]: 64.5 µM
TGI [48]: > 75.8 µM
TGI [49]: 61.9 µM
TGI [50]: > 68.3 µM
TGI [51]: > 64.9 µM
TGI [52]: > 70 µM
TGI [53]: 35.3 µM
TGI [54]: > 60.6 µM
TGI [55]: 51.8 µM
TGI [56]: > 68.8 µM
TGI [57]: > 85 µM
TGI [58]: > 65.7 µM
TGI [59]: > 71.8 µM
